Measurements: ChEMBL document CHEMBL5230118, “Therapeutic potential of uracil and its derivatives in countering pathogenic and physiological disorders” (Eur J Med Chem, 2020)

Experiments:
DLD-1 = assay: Antiproliferative activity against human DLD-1 cells assessed as cell growth inhibition; format: functional, cell-based
COLO-320-HSR = assay: Antiproliferative activity against human COLO 320HSR cells assessed as cell growth inhibition; format: functional, cell-based
HT-29 = assay: Antiproliferative activity against human HT-29 cells assessed as cell growth inhibition; format: functional, cell-based
[1] = Bioavailability in human; format: ADME, organism-based; conditions: in vivo
in vivo = conditions: mouse
Human alphaherpesvirus 3 = assay: Antiviral activity against clinical isolate VZV; format: functional, organism-based

**Q.** Which IC50 (DLD-1) does the source give for `O=c1[nH]c(=O)n([C@@H]2O[C@H](CO)[C@@H](O)[C@@H]2O)cc1F` here?
**A.** 52 nM

**Q.** What about the IC50 (COLO-320-HSR) of the same compound?
**A.** 23 nM

**Q.** And the IC50 (HT-29)?
**A.** 41 nM

**Q.** For `Cn1c(=O)cc(N2CCC[C@@H](N)C2)n(Cc2ccccc2C#N)c1=O` [ALOGLIPTIN], which bioavailability [1] is on record?
**A.** 75%

**Q.** Which half-life (in vivo) does the source give for `O=c1[nH]cc(F)c(=O)[nH]1` [FLUOROURACIL] here?
**A.** 16 min

**Q.** With `CC#Cc1cn([C@@H]2O[C@H](CO)[C@@H](O)[C@@H]2O)c(=O)[nH]c1=O` [NETIVUDINE] as the compound, how does the bioavailability [1] read?
**A.** 25%

**Q.** And the IC50 (Human alphaherpesvirus 3)?
**A.** 1000 nM
